Key:
[1] = tested on: MMP-13; assay: MMP-13 mRNA expression (real-time PCR, relative to GAPDH) in bovine primary chondrocytes in alginate beads; type: cell-based, Bos Taurus; details: 1.5 μM each, 3 days
Description: (§1) An in vitro study of bovine primary chondrocytes in alginate beads was performed. Substantially purified oleuropein (>98%) was purchased from Extrasynthese (Genay, France). Substantially purified hydroxytyrosol (>98%) was purchased from Extrasynthese (Genay, France). Substantially purified quercetin (>97%) was purchased from HWI Analytik GmbH (Ruelzheim, Germany).
(§2) The foot of a young cow was washed to remove soil. The skin was removed from the foot. The articulation was opened transversally. Intra articular ligaments were transected. The opened articulation was washed with phosphate buffered saline. With a scalpel blade, full thickness slices of cartilage were dissected out and collected in DMEM high glucose with 10 mM Hepes and 1% Penicillin-Streptomycin. Slices of cartilage were washed in DMEM high glucose with 10 mM Hepes and 1% Penicillin-Streptomycin. […]
(§3) Total RNA was isolated from a pool of 40 beads and isolated using RNeasy kit from Qiagen. cDNA was obtained by reverse transcription of RNA with the Primescript 1st strand cDNA Synthesis kit from Takara. mRNA expression of ADAMTS-5, COX-2, MMP-13 and GAPDH were quantified in real-time PCR (SYBR Green).
(§4) Data were expressed as fold change in gene expression compared to negative control (cells cultured in complete medium).
(§5) Data was expressed as median±S.E.Median (2 experiments of 3 replicates each). […]

[2] = tested on: COX-2; assay: COX-2 mRNA expression (real-time PCR, relative to GAPDH) in bovine primary chondrocytes in alginate beads; type: cell-based, Bos Taurus; details: 1.5 μM each, 3 days
Description: as §1, §2, §3, §4, §5

[3] = tested on: ADAMTS-5; assay: ADAMTS-5 mRNA expression (real-time PCR, relative to GAPDH) in bovine primary chondrocytes in alginate beads; type: cell-based, Bos Taurus; details: 1.5 μM each, 3 days
Description: as §1, §2, §3, §4, §5

[4] = tested on: Dunkin-Hartley guinea pigs; assay: Spontaneous osteoarthritis in Dunkin-Hartley guinea pigs: histological OA score and synovial score (OARSI); type: in vivo, guinea pig; details: in diet 31 weeks (oleuropein 0.025%, rutin 0.5%, curcumin 0.25%); week 35; vs control group; p<0.01
Description: An in vivo study of spontaneous development of osteoarthritis in Dunkin-Hartley guinea pigs was performed. Sixty-five male Dunkin-Hartley guinea-pigs aged 3 weeks were obtained from Charles River Laboratories (Paris). Animals were housed 5 per cage in solid bottom cages and fed with standard guinea-pig diet and water ad libitum. All animals were allowed one week for acclimatization to housing conditions prior to phytonutrients administration. PVC pipes were added to the cages to improve housing conditions and minimize stress.
Substantially purified oleuropein (>90%) was purchased from Extrasynthese (Genay, France). Substantially purified rutin (>94%) was purchased from Sigma-Aldrich (Buchs, Switzerland).
Oleuropein, rutin and curcumin were integrated in the diet. […] Food intake was controlled at W9, W15, W21, W26 and W34 by weighing daily quantities of food added and remaining. […]
Paraffin embedded right knees were cut with a microtome (Leica) in 6 μm sections, in the central area not covered by meniscus, following the Cushin plane, as recommended by OARSI. […] Each compartment of the section (tibial median, tibial lateral, femoral median and femoral lateral) was scored by two blinded trained experts following OARSI recommendation and to assess the global cartilage score, each compartment score was added. […]
The results (mean±SD) were calculated for each parameter. […]

[5] = tested on: PGE2; assay: PGE2 in guinea pig serum by competitive ELISA; type: in vivo; details: in diet 31 weeks; week 35; vs control group
Description: 6 h fasting blood was obtained in the morning, under ketamine/xylazine tranquilization, at the superficial veins at the ears, each 6 weeks: W4 (=TO), W10, W16, W22, W28. At W35, blood was collected by intracardiac puncture just before euthanasia, under general anesthesia.
PGE2 was measured in guinea pig serum using a competitive ELISA kit (Arbor Assays, USA).
The results (mean±SD) were calculated for each parameter. Following a normality test, a parametric ANOVA with Dunnett's post-test or Pearson correlation was performed on all the experiments. *p<0.05; **<0.01; ***p<0.001.

[6] = tested on: Primary osteoblasts from the calvaria of newborn Wistar rats; assay: Alkaline phosphatase (ALP) activity of primary osteoblasts; type: cell-based, rat; details: day 15; 1 μM OLP, 1 μM HTy, 10^−9 M 1,25(OH)2D3; vs C−
Description: Alkaline phosphatase activity of osteoblasts and potentiation of effect by vitamin D were investigated. Primary osteoblasts were isolated from the calvaria of newborn Wistar rats by enzymatic digestion as described by […] et al. in 2004. During all experiments, cells were maintained in α-minimal essential medium with 10% heat-inactivated fetal bovine serum and 1% penicillin/streptomycin under conditions of 5% CO2 and 37° C. Cells were seeded on Coll-1-coated 96-well plates at a density of 3500 cells/well or in 24-well plates at a density of 3×10^4 cells/well and cultured for 2 days in α-MEM to reach confluence. Cells were then exposed to different conditions: minimal medium (C-), minimal medium containing 50 μg/ml ascorbic acid, 5 mM β-glycerophosphate (C+; optimized medium), and minimal medium supplemented with 1 μM oleuropein (OLP) and/or 1 μM hydroxytyrosol (HTy) and/or 10^-9 M 1,25 dihydroxivitamin […] dissolved in dimethylsulfoxide (DMSO) and 1,25(OH)2D3 was dissolved in ethanol. […] Enzymatic activity of alkaline phosphatase (ALP) was measured kinetically on Treatment Days 0, 5, 9, 12 and 15. […] Absorbance was measured at 405 nm and 30° C., and every 2 min 30 s for 30 min using a VarioSklan Flash microplate reader. ALP activity was expressed as micromoles of p-NPP per hour per milligram of protein. […] Data were expressed as mean±SEM. […]. […]

[7] = disease conditions (presence of IL1a 10 ng/ml), vs IL1a
[8] = normal conditions (absence of IL1a), vs CTL−

SMILES: O=c1c(O)c(-c2ccc(O)c(O)c2)oc2cc(O)cc(O)c12 [quercetin]
- MMP-13 mRNA expression relative to GAPDH [1, 7]: decrease expression of MMP-13
- MMP-13 mRNA expression relative to GAPDH [1, 8]: decrease expression of MMP-13
- COX-2 mRNA expression relative to GAPDH [2, 7]: decrease expression of COX-2
- COX-2 mRNA expression relative to GAPDH [2, 8]: can reduce expression of COX-2
- ADAMTS-5 mRNA expression relative to GAPDH [3, 7]: decrease expression of ADAMTS-5
- ADAMTS-5 mRNA expression relative to GAPDH [3, 8]: decrease expression of ADAMTS-5

SMILES: COc1cc(/C=C/C(=O)CC(=O)/C=C/c2ccc(O)c(OC)c2)ccc1O [curcumin]
- total OA score (histological cartilage score) [4]: decreasing cartilage degradation and histological OA score
- PGE2 levels in plasma/serum [5]: only non-significant effect

SMILES: C=C1/C(=C\C=C2/CCC[C@]3(C)[C@@H]([C@H](C)CCCC(C)(C)O)CC[C@@H]23)C[C@@H](O)C[C@@H]1O [vitamin D3, 1,25 dihydroxivitamin D3]
- alkaline phosphatase (ALP) activity / osteoblast activity [6]: small but statistically significant increase
